# Test results published in patent US20220265776A1, “COMBINATION” (GENESIS PHARMA SA, priority 2019, published 2022).
# How the values were obtained:
# [1] = tested on: rat model of transient middle cerebral artery occlusion; experiment: Rat t-MCAO: modified neurological severity score (NSS), scale 0 to 18; type: in vivo; conditions: for Modified NSS on Day 2 (mean + SD) / Modified NSS on Day 7 (mean + SD) / percentage change of Modified NSS on Day 2 vs the control group / percentage change of Modified NSS on Day 7 vs the control group: repeated administration (7 days); for modified neurological severity score (NSS) compared with the control group on Day 2 / modified neurological severity score (NSS) compared with the control group on Day 7: monotherapy
# Method: (§1) Test compounds were administrated intravenously 20 minutes before reperfusion and then twice a day thereafter for six consecutive days. The modified neurological severity score (NSS) was graded on a scale of 0 to 18 (in which normal score was 0 and maximal deficit score was represented by 18), on Study Day 2 (one day following surgery) and on Study Day 7 (7 days post-surgery and before study termination); it included a set of clinical-neurological tests (composite of motor, sensory, reflex and balance tests). At study termination brains were harvested, sliced into five 2 mm thick coronal sections and stained with triphenyl tetrazolium chloride (TTC) for infarct size measurement using ImageJ program. Morbidity, mortality, body weight and clinical observation were also recorded. […] The statistical significance (P) of treated groups vs the untreated control group was determined using two-way ANOVA followed by Bonferroni post hoc test, using GraphPad Prism 5 program.
# (§2) Due to mortality in some of the groups, the numbers within the groups were adjusted to have sufficient animals in all the groups.
# (§3) In study Part II, a total of 86 SD male rats (270-320 gr upon arrival) were divided into 9 groups (7 or 15 rats per treated group and 6 rats in the control group). Due to mortality in some of the groups, the numbers within the groups were adjusted to have sufficient animals in all the groups.
# [2] = tested on: rat model of transient middle cerebral artery occlusion; experiment: Rat t-MCAO: brain infarct size (TTC staining, ImageJ); type: in vivo; conditions: for Relative brain infarct volume on Day 7 (%) (mean + SD) / percentage change of relative brain infarct volume on Day 7 vs the control group: repeated administration (7 days); for efficacy when administered as monotherapies: low doses, monotherapy
# Method: as §1, §2, §3
# [3] = tested on: rat thromboembolic model of stroke; conditions: continuous infusion (75 ng/h), at 7 days post middle cerebral artery occlusion; cited from earlier work
# [4] = tested on: rat model of stroke (middle cerebral artery occlusion); conditions: 10 μg/kg IP loading dose plus 200 ng/h sc infusion beginning 4.5 h or 10 h after onset of ischemia; cited from earlier work
# [5] = Treatment F: potassium canrenoate 1 mg/Kg iv
# [6] = Treatment G: potassium canrenoate 3 mg/Kg iv
# [7] = Treatment H: potassium canrenoate 10 mg/Kg iv
# [8] = lowest doses (treatments A, E and I)
# [9] = Treatment I: glibenclamide 1 μg/Kg iv
# [10] = Treatment J: glibenclamide 3 μg/Kg iv
# [11] = Treatment K: glibenclamide 10 μg/Kg iv
# [12] = Treatment L: glibenclamide 30 μg/Kg iv
compound,measurement,setting,value
"C[C@]12CCC(=O)C=C1C=C[C@@H]1[C@@H]2CC[C@@]2(C)[C@H]1CC[C@@]2(O)CCC(=O)[O-].[K+] [POTASSIUM CANRENOATE, potassium 3-[(8R,9S,10R,13S,14S,17R)-17-hydroxy-10,13-dimethyl-3-oxo-2,8,9,11,12,14,15,16 octahydro-1H-cyclopenta[a]phenanthren-17-yl]propanoate]",Modified NSS on Day 2 (mean + SD),[1]; [5],12 ± 3
same,Modified NSS on Day 7 (mean + SD),[1]; [5],8 ± 1
same,percentage change of Modified NSS on Day 2 vs the control group,[1]; [5],[−14%; *]
same,percentage change of Modified NSS on Day 7 vs the control group,[1]; [5],[−38%; ***]
same,Modified NSS on Day 2 (mean + SD),[1]; [6],11 ± 2
same,Modified NSS on Day 7 (mean + SD),[1]; [6],10 ± 2
same,percentage change of Modified NSS on Day 2 vs the control group,[1]; [6],[−21%; *]
same,percentage change of Modified NSS on Day 7 vs the control group,[1]; [6],[−23%; *]
same,Modified NSS on Day 2 (mean + SD),[1]; [7],10 ± 1
same,Modified NSS on Day 7 (mean + SD),[1]; [7],8 ± 1
same,percentage change of Modified NSS on Day 2 vs the control group,[1]; [7],[−29%; **]
same,percentage change of Modified NSS on Day 7 vs the control group,[1]; [7],[−38%; ***]
same,modified neurological severity score (NSS) compared with the control group on Day 2,[1]; [8],did not show a statistically significant decrease
same,modified neurological severity score (NSS) compared with the control group on Day 7,[1]; [8],did not show a statistically significant decrease
same,Relative brain infarct volume on Day 7 (%) (mean + SD),[2]; [5],15 ± 6%
same,percentage change of relative brain infarct volume on Day 7 vs the control group,[2]; [5],[−64%; ***]
same,Relative brain infarct volume on Day 7 (%) (mean + SD),[2]; [6],28 ± 11%
same,percentage change of relative brain infarct volume on Day 7 vs the control group,[2]; [6],[−33%; **]
same,Relative brain infarct volume on Day 7 (%) (mean + SD),[2]; [7],12 ± 3%
same,percentage change of relative brain infarct volume on Day 7 vs the control group,[2]; [7],[−71%; ***]
same,efficacy when administered as monotherapies,[2],ineffective
"COc1ccc(Cl)cc1C(=O)NCCc1ccc(S(=O)(=O)NC(=O)NC2CCCCC2)cc1 [GLIBENCLAMIDE, 5-chloro-N-[2-[4-(cyclohexylcarbamoyl-sulfamoyl)phenyl]ethyl]-2-methoxybenzamide]","reduction of cerebral edema, infarct volume and mortality",[3],50%
same,modified neurological severity score (NSS) compared with the control group on Day 2,[1]; 3 μg/kg dose (treatment J),did not show a statistically significant decrease
same,Modified NSS on Day 2 (mean + SD),[1]; [9],14 ± 1
same,Modified NSS on Day 7 (mean + SD),[1]; [9],12 ± 1
same,percentage change of Modified NSS on Day 2 vs the control group,[1]; [9],[0%; NS]
same,percentage change of Modified NSS on Day 7 vs the control group,[1]; [9],[−8%; NS]
same,Modified NSS on Day 2 (mean + SD),[1]; [10],13 ± 3
same,Modified NSS on Day 7 (mean + SD),[1]; [10],10 ± 1
same,percentage change of Modified NSS on Day 2 vs the control group,[1]; [10],[−7%; NS]
same,percentage change of Modified NSS on Day 7 vs the control group,[1]; [10],[−23%; *]
same,Modified NSS on Day 2 (mean + SD),[1]; [11],11 ± 3
same,Modified NSS on Day 7 (mean + SD),[1]; [11],8 ± 2
same,percentage change of Modified NSS on Day 2 vs the control group,[1]; [11],[−21%; **]
same,percentage change of Modified NSS on Day 7 vs the control group,[1]; [11],[−38%; ***]
same,Modified NSS on Day 2 (mean + SD),[1]; [12],11 ± 3
same,Modified NSS on Day 7 (mean + SD),[1]; [12],8 ± 1
same,percentage change of Modified NSS on Day 2 vs the control group,[1]; [12],[−21%; **]
same,percentage change of Modified NSS on Day 7 vs the control group,[1]; [12],[−38%; ***]
same,modified neurological severity score (NSS) compared with the control group on Day 2,[1]; [8],did not show a statistically significant decrease
same,modified neurological severity score (NSS) compared with the control group on Day 7,[1]; [8],did not show a statistically significant decrease
same,hemispheric swelling at 24 h and 48-h mortality,[4],significantly reduced
same,Relative brain infarct volume on Day 7 (%) (mean + SD),[2]; [9],33 ± 10%
same,percentage change of relative brain infarct volume on Day 7 vs the control group,[2]; [9],[−21%; NS]
same,Relative brain infarct volume on Day 7 (%) (mean + SD),[2]; [10],19 ± 9%
same,percentage change of relative brain infarct volume on Day 7 vs the control group,[2]; [10],[−55%; ***]
same,Relative brain infarct volume on Day 7 (%) (mean + SD),[2]; [11],16 ± 9%
same,percentage change of relative brain infarct volume on Day 7 vs the control group,[2]; [11],[−62%; ***]
same,Relative brain infarct volume on Day 7 (%) (mean + SD),[2]; [12],17 ± 8%
same,percentage change of relative brain infarct volume on Day 7 vs the control group,[2]; [12],[−60%; ***]
same,efficacy when administered as monotherapies,[2],ineffective
